Columns and labels:
[1] = tested on: PD1-ss+10aa/Gaussia Luciferase; experiment: Dox-Induced PD1-ss-Gluc Assay; assay type: cell-based; settings: Flp-In 293 T-REx cells, 24 hours with doxycycline; Table 1; read-out: 24 hr Dox Inducible PD1ssGluc 293FRT/TO: Mean IC50
From the text: Flp-In 293 T-REx™ cells were transfected with pcDNA™5/FRT/TO plasmid inserted with cDNA encoding Gaussia Luciferase fused to the 3′ end of cDNA encoding PD1 signal sequence plus 10 amino acids (N-[…]-C) (SEQ ID NO: 1). Transfected cells were selected for resistance to the selectable markers Hygromycin and Blasticidin to create a stable cell line that contained the PD1-ss+10aa/Gaussia Luciferase cDNA insert whose expression was regulated under the T-REx™ system. The day before assay, cells were trypsinized and plated in 384-well tissue culture plates. The next day, compound dilutions in DMSO/media containing doxycycline were added to the wells and incubated at 37° C., 5% CO2.
(§1) For chemical structures that include one or more stereoisomers, but are illustrated without indicating stereochemistry, the assay data refers to a mixture of stereoisomers.

[2] = tested on: IL-2-FL/Gaussia Luciferase; experiment: Dox Inducible IL2-FL-Gluc Assay; assay type: cell-based; settings: Table 1; for IC50: Flp-In 293 T-REx cells, 24 hours with doxycycline, read-out: 24 hr Dox Inducible IL2FLGluc 293FRT/TO: Mean IC50; for 24 hr Dox Inducible IL2FLGluc 293FRT/TO: IL2/PD1: ratio of IC50s IL2/PD1
From the text: Flp-In 293 T-REx™ cells were transfected with pcDNA™5/FRT/TO plasmid inserted with cDNA encoding Gaussia Luciferase fused to the 3′ end of cDNA encoding full length IL-2 (amino acids 1-153). Transfected cells were selected for resistance to the selectable markers Hygromycin and Blasticidin to create a stable cell line that contained the IL-2-FL/Gaussia Luciferase cDNA insert whose expression was regulated under the T-REx™ system. The day before assay, cells were trypsinized and plated in 384-well tissue culture plates. The next day, compound dilutions in DMSO/media containing doxycycline were added to the wells and incubated at 37° C., 5% CO2.
as §1

CD47(ss + 10)Gluc = experiment: Dox-Induced CD47-ss-Gluc Assay; assay type: cell-based; settings: Flp-In 293 T-REx cells, 24 hours with doxycycline; Table 1; read-out: 24 hr Dox Inducible CD47(ss + 10)Gluc 293FRT/TO: Mean IC50
[3] = tested on: IL6R-ss+10aa/Gaussia Luciferase; experiment: Dox-induced IL-6R-ss-Gluc Assay; assay type: cell-based; settings: Table 1; for IC50: Flp-In 293 T-REx cells, 24 hours with doxycycline, read-out: 24hr Dox Inducible IL6R(ss + 10)Gluc 293FRT/TO: Mean IC50; for 24hr Dox Inducible IL6R(ss + 10)Gluc 293FRT/TO: IL6R/PD1: ratio of IC50s IL6R/PD1
From the text: Flp-In 293 T-REx™ cells were transfected with pcDNATM5/FRT/TO plasmid inserted with cDNA encoding Gaussia Luciferase fused to the 3′ end of cDNA encoding IL6R signal sequence plus 10 amino acids (N-[…]-C). Transfected cells were selected for resistance to the selectable markers Hygromycin and Blasticidin to create a stable cell line that contained the IL6R-ss+10aa/Gaussia Luciferase cDNA insert whose expression was regulated under the T-REx™ system. The day before assay, cells were trypsinized and plated in 384-well tissue culture plates. The next day, compound dilutions in DMSO/media containing doxycycline were added to the wells and incubated at 37° C., 5% CO2.
as §1

[4] = tested on: multiple myeloma cell line NCI-H929; experiment: H929 Cell Viability Assay; assay type: cell-based, human; settings: Homo sapiens; NCI-H929 cells, 48 hours, Celltiter-Glo; read-out: 48 hr H929 Viability Celltiter-Glo: Mean EC50
Experimental: The human multiple myeloma cell line NCI-H929 was cultured in Advanced RPMI 1640 media (Gibco®) supplemented with 6% fetal bovine serum, 2 mM Glutamine, and 1× Penicillin/Streptomycin. On the day of assay, cells were resuspended in RPMI 1640 media supplemented with 10% fetal bovine serum, 2 mM Glutamine, and 1× Penicillin/Streptomycin and plated in 384-well tissue culture plates and treated with compound dilutions in DMSO/media. Plates were incubated at 37° C., 5% CO2 for 48 hours. After 48 hours, Celltiter-Glo® (Promega) was added to each well and luciferase signal was quantified using Tecan Infinite M1000 Pro for cell viability determination.
as §1

[5] = tested on: multiple myeloma cell line U266B1; experiment: U266 Cell Viability Assay; assay type: cell-based; settings: Homo sapiens, U-266; U266B1 cells, 48 hours, Celltiter-Glo; read-out: 48 hr U266 Viability Celltiter-Glo: Mean EC50
Experimental: The human multiple myeloma cell line U266B1 was cultured in RPMI 1640 media supplemented with 10% fetal bovine serum, 2 mM Glutamine, and 1× Penicillin/Streptomycin. Cells were plated in 384-well tissue culture plates and treated with compound dilutions in DMSO/media. Plates were incubated at 37° C., 5% CO2 for 48 hours. After 48 hours, Celltiter-Glo® (Promega) was added to each well and luciferase signal was quantified using Tecan Infinite M1000 Pro for cell viability determination.
as §1

[6] = Liver Microsome Stability Assay, mouse; assay type: in vitro ADME; settings: mouse liver microsomes 1.0 mg/mL, 1.0 uM compound, 37° C., 1 mM NADPH
Experimental: (§2) Stability of a compound was assessed in the presence of liver microsomes from various sources—mouse, rat, monkey and human liver microsomes. 1.0 uM compound, 0.4% DMSO in 0.1 M Potassium Phosphate with 1.0 mg/mL liver microsomes, were incubated at 37° C. with or without 1 mM NADPH. The samples were quenched at 0, and 30 minutes.

[7] = Liver Microsome Stability Assay, rat; assay type: in vitro ADME; settings: rat liver microsomes 1.0 mg/mL, 1.0 uM compound, 37° C., 1 mM NADPH
Experimental: as §2

[8] = Liver Microsome Stability Assay, monkey; assay type: in vitro ADME; settings: monkey liver microsomes 1.0 mg/mL, 1.0 uM compound, 37° C., 1 mM NADPH
Experimental: as §2

[9] = Liver Microsome Stability Assay, human; assay type: in vitro ADME; settings: human liver microsomes 1.0 mg/mL, 1.0 uM compound, 37° C., 1 mM NADPH
Experimental: as §2

O=C(Nc1nc(/C=C/c2ncn(C3CC3)c2Cl)cs1)c1cc(C(F)(F)F)cn1Cc1ccnc(F)c1 [Compound A30, (E)-N-(4-(2-(5-chloro-1-cyclopropyl-1H-imidazol-4-yl)vinyl)thiazol-2-yl)-1-((2-fluoropyridin-4-yl)methyl)-4-(trifluoromethyl)-1H-pyrrole-2-carboxamide]
IC50 [1]: 7 nM | IC50 [2]: 2130 nM | 24 hr Dox Inducible IL2FLGluc 293FRT/TO: IL2/PD1 [2]: 290.0 | IC50 (CD47(ss + 10)Gluc): 2380 nM | IC50 [3]: 2160 nM | 24hr Dox Inducible IL6R(ss + 10)Gluc 293FRT/TO: IL6R/PD1 [3]: 292 | EC50 [4]: > 25000 nM | EC50 [5]: > 25000 nM | Liver Microsome Stability (Multiple Species): Mouse - % Remaining after 30 min w/ NADPH (%) [6]: 44% | Liver Microsome Stability (Multiple Species): Rat - % Remaining after 30 min w/ NADPH (%) [7]: <1% | Liver Microsome Stability (Multiple Species): Monkey - % Remaining after 30 min w/ NADPH (%) [8]: 70% | Liver Microsome Stability (Multiple Species): Human - % Remaining after 30 min w/ NADPH (%) [9]: 63%

[2H]C([2H])([2H])Oc1cc(C(=O)Nc2nc(/C=C/c3ncn(C4CC4)c3Cl)cs2)n(Cc2ccnc(F)c2F)c1 [Compound A22, (E)-N-(4-(2-(5-chloro-1-cyclopropyl-1H-imidazol-4-yl)vinyl)thiazol-2-yl)-1-((2,3-difluoropyridin-4-yl)methyl)-4-(methoxy-d3)-1H-pyrrole-2-carboxamide]
IC50 [1]: 34 nM | IC50 [2]: > 25000 nM | 24 hr Dox Inducible IL2FLGluc 293FRT/TO: IL2/PD1 [2]: >740 | IC50 (CD47(ss + 10)Gluc): 5530 nM | IC50 [3]: > 25000 nM | 24hr Dox Inducible IL6R(ss + 10)Gluc 293FRT/TO: IL6R/PD1 [3]: >741 | EC50 [4]: > 25000 nM | EC50 [5]: > 25000 nM | Liver Microsome Stability (Multiple Species): Mouse - % Remaining after 30 min w/ NADPH (%) [6]: 69% | Liver Microsome Stability (Multiple Species): Rat - % Remaining after 30 min w/ NADPH (%) [7]: 33% | Liver Microsome Stability (Multiple Species): Monkey - % Remaining after 30 min w/ NADPH (%) [8]: 9% | Liver Microsome Stability (Multiple Species): Human - % Remaining after 30 min w/ NADPH (%) [9]: 16%

N#Cc1c(/C=C/c2csc(NC(=O)c3cc(OC(F)F)cn3Cc3ccnc(F)c3)n2)ncn1C1CC1 [Compound A27, (E)-N-(4-(2-(5-cyano-1-cyclopropyl-1H-imidazol-4-yl)vinyl)thiazol-2-yl)-4-(difluoromethoxy)-1-((2-fluoropyridin-4-yl)methyl)-1H-pyrrole-2-carboxamide]
IC50 [1]: 9 nM | IC50 [2]: 3090 nM | 24 hr Dox Inducible IL2FLGluc 293FRT/TO: IL2/PD1 [2]: 340.0 | IC50 (CD47(ss + 10)Gluc): 2550 nM | IC50 [3]: 2110 nM | 24hr Dox Inducible IL6R(ss + 10)Gluc 293FRT/TO: IL6R/PD1 [3]: 235 | EC50 [4]: 17800 nM | EC50 [5]: > 25000 nM | Liver Microsome Stability (Multiple Species): Mouse - % Remaining after 30 min w/ NADPH (%) [6]: 70% | Liver Microsome Stability (Multiple Species): Rat - % Remaining after 30 min w/ NADPH (%) [7]: 2% | Liver Microsome Stability (Multiple Species): Monkey - % Remaining after 30 min w/ NADPH (%) [8]: 47% | Liver Microsome Stability (Multiple Species): Human - % Remaining after 30 min w/ NADPH (%) [9]: 78%

O=C(Nc1nc(/C=C/c2cccc(F)c2)cs1)c1cccn1Cc1ccnc(F)c1 [Compound B28, (E)-1-((2-fluoropyridin-4-yl)methyl)-N-(4-(3-fluorostyryl)thiazol-2-yl)-1H-pyrrole-2-carboxamide]
IC50 [1]: 172 nM | IC50 [2]: 1090 nM | 24 hr Dox Inducible IL2FLGluc 293FRT/TO: IL2/PD1 [2]: 6.1 | IC50 (CD47(ss + 10)Gluc): 1000 nM | IC50 [3]: 1200 nM | 24hr Dox Inducible IL6R(ss + 10)Gluc 293FRT/TO: IL6R/PD1 [3]: 7 | EC50 [4]: 15000 nM | EC50 [5]: > 25000 nM | Liver Microsome Stability (Multiple Species): Mouse - % Remaining after 30 min w/ NADPH (%) [6]: 72% | Liver Microsome Stability (Multiple Species): Rat - % Remaining after 30 min w/ NADPH (%) [7]: 39% | Liver Microsome Stability (Multiple Species): Monkey - % Remaining after 30 min w/ NADPH (%) [8]: 22% | Liver Microsome Stability (Multiple Species): Human - % Remaining after 30 min w/ NADPH (%) [9]: 70%

CC(C)n1cnc(/C=C/c2csc(NC(=O)c3cc(Cl)cn3Cc3ccnc(F)c3)n2)c1Cl [Compound A1]
IC50 [1]: 30 nM | IC50 [2]: 2020 nM | 24 hr Dox Inducible IL2FLGluc 293FRT/TO: IL2/PD1 [2]: 66 | IC50 (CD47(ss + 10)Gluc): 1860 nM | IC50 [3]: 1890 nM | 24hr Dox Inducible IL6R(ss + 10)Gluc 293FRT/TO: IL6R/PD1 [3]: 62 | EC50 [4]: > 25000 nM | EC50 [5]: > 25000 nM | Liver Microsome Stability (Multiple Species): Mouse - % Remaining after 30 min w/ NADPH (%) [6]: 71% | Liver Microsome Stability (Multiple Species): Rat - % Remaining after 30 min w/ NADPH (%) [7]: 82% | Liver Microsome Stability (Multiple Species): Monkey - % Remaining after 30 min w/ NADPH (%) [8]: 31% | Liver Microsome Stability (Multiple Species): Human - % Remaining after 30 min w/ NADPH (%) [9]: 11%

Cc1nc(/C=C/c2csc(NC(=O)c3cccn3Cc3ccnc(F)c3)n2)ccc1C#N [Compound B14, (E)-N-(4-(2-(5-cyano-6-methylpyridin-2-yl)vinyl)thiazol-2-yl)-1-((2-fluoropyridin-4-yl)methyl)-1H-pyrrole-2-carboxamide]
IC50 [1]: 1100 nM | IC50 [2]: > 25000 nM | 24 hr Dox Inducible IL2FLGluc 293FRT/TO: IL2/PD1 [2]: >23 | IC50 (CD47(ss + 10)Gluc): > 25000 nM | IC50 [3]: > 25000 nM | 24hr Dox Inducible IL6R(ss + 10)Gluc 293FRT/TO: IL6R/PD1 [3]: >23 | EC50 [4]: > 25000 nM | EC50 [5]: > 25000 nM | Liver Microsome Stability (Multiple Species): Mouse - % Remaining after 30 min w/ NADPH (%) [6]: 0.2% | Liver Microsome Stability (Multiple Species): Rat - % Remaining after 30 min w/ NADPH (%) [7]: <1% | Liver Microsome Stability (Multiple Species): Monkey - % Remaining after 30 min w/ NADPH (%) [8]: <1% | Liver Microsome Stability (Multiple Species): Human - % Remaining after 30 min w/ NADPH (%) [9]: <1%
